These results are taken from US10414811B2, “Protease-resistant lipidated GLP-1 analogs” (MEDIMMUNE LIMITED, priority 2015, dated 2019).

Read-outs that look alike come from different tables or passages of the source. Numbered stars: 1 amine (or outer) side, 2 acyl side, 3 side chain; on linkers, the order of the positions; unused ones are H or OH. Square brackets hold non-standard residues; d marks the D form. Side chains are listed from the residue outwards. Peptide text beside a SMILES is read from it. * marks the point of attachment. γGlu = O=C(O)[C@H](CCC(=O)[*:2])N[*:1]; Palmitoyl = CCCCCCCCCCCCCCCC(=O)*; αMeF = C[C@](N)(Cc1ccccc1)C(=O)O; αMeK = C[C@](N)(CCCCN)C(=O)O; αMeS = C[C@](N)(CO)C(=O)O; Aib = CC(C)(N)C(=O)O Some results are limits rather than exact numbers.

Common to all, as to type: cell-based
In assay [1] the target is T1, human glucose-dependent insulinotropic peptide receptor (GIPR) (Homo sapiens, UniProt P48546).
T1 construct: expressed in transfected cells
T1 sequence (P48546 22-466): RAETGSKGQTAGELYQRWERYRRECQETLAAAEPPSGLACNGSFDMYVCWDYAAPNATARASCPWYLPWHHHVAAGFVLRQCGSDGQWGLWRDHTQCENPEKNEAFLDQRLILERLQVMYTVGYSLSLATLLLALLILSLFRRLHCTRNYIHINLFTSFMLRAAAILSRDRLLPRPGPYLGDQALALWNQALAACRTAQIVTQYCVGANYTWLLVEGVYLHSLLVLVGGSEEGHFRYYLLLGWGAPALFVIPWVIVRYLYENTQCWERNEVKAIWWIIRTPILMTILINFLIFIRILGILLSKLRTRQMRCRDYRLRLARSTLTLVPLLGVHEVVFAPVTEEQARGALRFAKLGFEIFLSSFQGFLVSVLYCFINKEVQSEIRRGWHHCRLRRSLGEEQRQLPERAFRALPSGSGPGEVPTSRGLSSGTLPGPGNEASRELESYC
The experiment in a line: cAMP assay, human GIPR cells. Summed up:
(§1)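 Peptide-stimulated cAMP measured by two-step HTRF after a 30 min room-temperature incubation with receptor-expressing cells (hGLP-1R, hGIPR at 1×10^5 cells/ml; hGCGR at 2×10^5 cells/ml). Duplicate dilutions; EC50 from 4-parameter logistic fit of % Delta F.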
(cAMP levels reflect the balance of adenylyl cyclase and phosphodiesterase activity.)

Assay [2] concerns the target T2, human glucagon receptor (GCGR) (Homo sapiens, UniProt P47871).
T2 construct: expressed in transfected cells
The experiment in a line: cAMP assay, human GCGR cells. Summed up:
as §1

The target in assay [3] is T3, human GLP-1 receptor (GLP-1R) (Homo sapiens, UniProt P43220).
T3 construct: expressed in transfected cells
T3 sequence (P43220 24-463): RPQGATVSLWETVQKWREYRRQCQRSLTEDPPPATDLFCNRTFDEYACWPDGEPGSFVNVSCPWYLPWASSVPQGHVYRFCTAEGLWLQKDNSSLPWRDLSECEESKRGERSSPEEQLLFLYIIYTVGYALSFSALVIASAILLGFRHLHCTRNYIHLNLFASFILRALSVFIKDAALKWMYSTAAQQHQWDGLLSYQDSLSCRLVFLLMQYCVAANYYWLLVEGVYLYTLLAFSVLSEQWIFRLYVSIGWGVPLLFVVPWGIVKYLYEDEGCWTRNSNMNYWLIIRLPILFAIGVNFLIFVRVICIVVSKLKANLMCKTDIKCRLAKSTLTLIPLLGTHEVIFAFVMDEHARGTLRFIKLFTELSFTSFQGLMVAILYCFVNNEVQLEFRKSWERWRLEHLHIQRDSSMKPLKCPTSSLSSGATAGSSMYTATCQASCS
The experiment in a line: cAMP assay, human GLP-1R cells. An outline of the steps: as §1

The mark [4] stands for this setting: cAMP assay, first determination (n1), read-out: Primary assay EC50 GIP-R (n1).
The mark [5] stands for this setting: cAMP assay, second determination (n2), read-out: Primary assay EC50 GIP-R (n2).
The mark [6] stands for this setting: cAMP assay, first determination (n1), read-out: Primary assay EC50 Gluc-R (n1).
The mark [7] stands for this setting: cAMP assay, second determination (n2), read-out: Primary assay EC50 Gluc-R (n2).
Setting [8] is: cAMP assay, first determination (n1), read-out: Primary assay EC50 GLP-1R n1.
Where [9] appears, read: cAMP assay, second determination (n2), read-out: Primary assay EC50 GLP-1R n2.
Setting [10] is: mean of n1 and n2, read-out: Mean pM GLP-1R.

T2 sequence (P47871 26-477): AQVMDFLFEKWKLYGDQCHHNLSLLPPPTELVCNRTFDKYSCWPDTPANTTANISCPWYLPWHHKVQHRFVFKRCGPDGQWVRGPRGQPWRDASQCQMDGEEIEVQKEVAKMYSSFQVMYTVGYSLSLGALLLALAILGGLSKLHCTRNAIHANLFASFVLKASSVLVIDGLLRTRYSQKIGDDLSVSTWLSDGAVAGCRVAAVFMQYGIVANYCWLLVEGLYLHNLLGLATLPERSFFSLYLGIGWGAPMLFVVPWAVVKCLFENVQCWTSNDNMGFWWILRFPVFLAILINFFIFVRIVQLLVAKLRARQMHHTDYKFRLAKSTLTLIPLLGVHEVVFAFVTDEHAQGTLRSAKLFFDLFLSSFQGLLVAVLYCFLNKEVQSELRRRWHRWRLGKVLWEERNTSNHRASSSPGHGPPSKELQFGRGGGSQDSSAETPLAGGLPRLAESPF

`CCCCCCCCCCCCCCCC(=O)N[C@@H](CCC(=O)NCCCC[C@H](NC(=O)[C@@H](NC(=O)[C@](C)(Cc1ccccc1)NC(=O)[C@H](CO)NC(=O)CNC(=O)[C@H](CCC(=O)O)NC(=O)C(C)(C)NC(=O)[C@@H](N)Cc1c[nH]cn1)[C@@H](C)O)C(=O)N[C@@H](CC(=O)O)C(=O)N[C@H](C(=O)N[C@@](C)(CO)C(=O)N[C@@H](CO)C(=O)N[C@@](C)(Cc1ccccc1)C(=O)N[C@@H](CC(C)C)C(=O)N[C@@H](CCC(=O)O)C(=O)NCC(=O)N[C@@H](CCC(=O)O)C(=O)N[C@@H](C)C(=O)N[C@@H](C)C(=O)N[C@@](C)(CCCCN)C(=O)N[C@@H](CCC(=O)O)C(=O)N[C@@](C)(Cc1ccccc1)C(=O)N[C@H](C(=O)N[C@@H](C)C(=O)N[C@@](C)(Cc1ccccc1)C(=O)N[C@H](C(=O)N[C@H](C(=O)N[C@@](C)(CCCCN)C(=O)NCC(=O)NCC(N)=O)C(C)C)C(C)C)[C@@H](C)CC)C(C)C)C(=O)O` [compound 92] (H-H[Aib]EGS[αMeF]TK([γGlu-Palmitoyl])DV[αMeS]S[αMeF]LEGEAA[αMeK]E[αMeF]IA[αMeF]VV[αMeK]GG-NH2; N-terminus assumed): the EC50 in assay [1] (setting [4]) is no less than 28 nM; in assay [1] (setting [5]), no less than 28 nM; in assay [2] (setting [6]), no less than 28 nM; in assay [2] (setting [7]), no less than 28 nM; in assay [3] (setting [8]), 450 pM; in assay [3] (setting [9]) it was 390 pM. Also, the EC50 in assay [3] (setting [10]) turned out to be 423 pM.
Consider `CC[C@H](C)[C@H](NC(=O)[C@](C)(Cc1ccccc1)NC(=O)[C@H](CCC(=O)O)NC(=O)[C@](C)(CCCCN)NC(=O)[C@H](C)NC(=O)[C@H](C)NC(=O)[C@H](CCC(=O)O)NC(=O)CNC(=O)[C@H](CCC(=O)O)NC(=O)[C@H](CC(C)C)NC(=O)[C@](C)(Cc1ccccc1)NC(=O)[C@H](CO)NC(=O)[C@](C)(CO)NC(=O)[C@@H](NC(=O)[C@H](CC(=O)O)NC(=O)[C@H](CO)NC(=O)[C@@H](NC(=O)[C@](C)(Cc1ccccc1)NC(=O)[C@H](CO)NC(=O)CNC(=O)[C@H](CCC(=O)O)NC(=O)C(C)(C)NC(=O)[C@@H](N)Cc1c[nH]cn1)[C@@H](C)O)C(C)C)C(=O)N[C@@H](C)C(=O)N[C@@](C)(Cc1ccccc1)C(=O)N[C@H](C(=O)N[C@H](C(=O)N[C@@H](CCCCNC(=O)CCCCCNC(=O)CCCCCNC(=O)CCCCCCCCCCCCCCCCC(=O)O)C(=O)NCC(=O)NCC(N)=O)C(C)C)C(C)C` [compound 195], for which the EC50 in assay [1] (first run (n1), cAMP activity, read-out: Primary assay EC50 GIP-R) is no less than 27 nM; in assay [1] (second run (n2), cAMP activity, read-out: Primary assay EC50 GIP-R), no less than 27 nM; in assay [2] (first run (n1), cAMP activity of substituted and mono-lipidated peptides, read-out: Primary assay EC50 Gluc-R), no less than 27 nM; in assay [2] (second run (n2), cAMP activity, read-out: Primary assay EC50 Gluc-R), no less than 27 nM; in assay [3] (first run (n1), cAMP activity, read-out: Primary assay EC50 GLP-1R n1), 170 pM; in assay [3] (setting [10]), 107 pM. Also, the EC50 in assay [3] (second run (n2), cAMP activity, read-out: Primary assay EC50 GLP-1R n2) turned out to be 46 pM.
As for `CC(C)C[C@H](NC(=O)[C@](C)(Cc1ccccc1)NC(=O)[C@H](CO)NC(=O)[C@H](CO)NC(=O)[C@@H](NC(=O)[C@H](CC(=O)O)NC(=O)[C@H](CO)NC(=O)[C@@H](NC(=O)[C@](C)(Cc1ccccc1)NC(=O)[C@H](CO)NC(=O)CNC(=O)[C@H](CCC(=O)O)NC(=O)C(C)(C)NC(=O)[C@@H](N)Cc1c[nH]cn1)[C@@H](C)O)C(C)C)C(=O)N[C@@H](CCC(=O)O)C(=O)NCC(=O)N[C@@H](CCC(=O)O)C(=O)N[C@@H](C)C(=O)N[C@@H](C)C(=O)N[C@@](C)(CCCCN)C(=O)N[C@@H](CCC(=O)O)C(=O)N[C@@](C)(Cc1ccccc1)C(=O)N[C@H](C(=O)N[C@@H](C)C(=O)N[C@@](C)(Cc1ccccc1)C(=O)N[C@H](C(=O)N[C@H](C(=O)N[C@@](C)(CCCCN)C(=O)NCC(=O)NCC(N)=O)C(C)C)C(C)C)C(C)C` [compound 11] (H-H[Aib]EGS[αMeF]TSDVSS[αMeF]LEGEAA[αMeK]E[αMeF]VA[αMeF]VV[αMeK]GG-NH2), the EC50 in assay [1] (setting [4]) was no less than 100 nM; in assay [1] (setting [5]), no less than 100 nM; in assay [2] (setting [6]), no less than 100 nM; in assay [2] (setting [7]) it was no less than 100 nM; in assay [3] (setting [8]), 32 pM; in assay [3] (setting [9]), 32 pM. Besides, the EC50 in assay [3] (setting [10]) came to 32 pM.
On to `CCCCCCCCCCCCCCCC(=O)N[C@@H](CCC(=O)NCCCC[C@H](NC(=O)CNC(=O)CNC(=O)[C@](C)(CCCCN)NC(=O)[C@@H](NC(=O)[C@@H](NC(=O)[C@](C)(Cc1ccccc1)NC(=O)[C@H](C)NC(=O)[C@@H](NC(=O)[C@](C)(Cc1ccccc1)NC(=O)[C@H](CCC(=O)O)NC(=O)[C@](C)(CCCCN)NC(=O)[C@H](C)NC(=O)[C@H](C)NC(=O)[C@H](CCC(=O)O)NC(=O)CNC(=O)[C@H](CCC(=O)O)NC(=O)[C@H](CC(C)C)NC(=O)[C@](C)(Cc1ccccc1)NC(=O)[C@H](CO)NC(=O)[C@](C)(CO)NC(=O)[C@@H](NC(=O)[C@H](CC(=O)O)NC(=O)[C@H](CC(=O)O)NC(=O)[C@@H](NC(=O)[C@](C)(Cc1ccccc1)NC(=O)[C@H](CO)NC(=O)CNC(=O)[C@H](CCC(=O)O)NC(=O)C(C)(C)NC(=O)[C@@H](N)Cc1c[nH]cn1)[C@@H](C)O)C(C)C)[C@@H](C)CC)C(C)C)C(C)C)C(N)=O)C(=O)O` [compound 35] (H-H[Aib]EGS[αMeF]TDDV[αMeS]S[αMeF]LEGEAA[αMeK]E[αMeF]IA[αMeF]VV[αMeK]GGK([γGlu-Palmitoyl])-NH2; N-terminus assumed), for which the EC50 was no less than 89 nM in assay [1] (setting [4]); no less than 27 nM in assay [1] (setting [5]); no less than 89 nM in assay [2] (setting [6]); no less than 27 nM in assay [2] (setting [7]); 4900 pM in assay [3] (setting [8]); 1700 pM in assay [3] (setting [9]). Also, the EC50 in assay [3] (setting [10]) was determined as 3260 pM.
Take `CCCCCCCCCCCCCCCCCC(=O)NCCCCCC(=O)NCCCCCC(=O)NCCCC[C@H](NC(=O)[C@@H](NC(=O)[C@@H](NC(=O)[C@](C)(Cc1ccccc1)NC(=O)[C@H](C)NC(=O)[C@@H](NC(=O)[C@](C)(Cc1ccccc1)NC(=O)[C@H](CCC(=O)O)NC(=O)[C@](C)(CCCCN)NC(=O)[C@H](C)NC(=O)[C@H](C)NC(=O)[C@H](CCC(=O)O)NC(=O)CNC(=O)[C@H](CCC(=O)O)NC(=O)[C@H](CC(C)C)NC(=O)[C@](C)(Cc1ccccc1)NC(=O)[C@H](CO)NC(=O)[C@](C)(CO)NC(=O)[C@@H](NC(=O)[C@H](CC(=O)O)NC(=O)[C@H](CO)NC(=O)[C@@H](NC(=O)[C@](C)(Cc1ccccc1)NC(=O)[C@H](CO)NC(=O)CNC(=O)[C@H](CCC(=O)O)NC(=O)C(C)(C)NC(=O)[C@@H](N)Cc1c[nH]cn1)[C@@H](C)O)C(C)C)[C@@H](C)CC)C(C)C)C(C)C)C(=O)NCC(=O)NCC(N)=O` [compound 186]: the EC50 is no less than 27 nM in assay [1] (setting [4]); no less than 27 nM in assay [1] (setting [5]); no less than 27 nM in assay [2] (setting [6]); no less than 27 nM in assay [2] (setting [7]); 130 pM in assay [3] (setting [8]); 50 pM in assay [3] (setting [9]). Further, the EC50 in assay [3] (setting [10]) is 87.5 pM.
For `CC[C@H](C)[C@H](NC(=O)[C@](C)(Cc1ccccc1)NC(=O)[C@H](CCC(=O)O)NC(=O)[C@H](CCCCNC(=O)CCCCCNC(=O)CCCCCNC(=O)CCCCCCCCCCCCCCCCC(=O)O)NC(=O)[C@H](C)NC(=O)[C@H](C)NC(=O)[C@H](CCC(=O)O)NC(=O)CNC(=O)[C@H](CCC(=O)O)NC(=O)[C@H](CC(C)C)NC(=O)[C@](C)(Cc1ccccc1)NC(=O)[C@H](CO)NC(=O)[C@](C)(CO)NC(=O)[C@@H](NC(=O)[C@H](CC(=O)O)NC(=O)[C@H](CO)NC(=O)[C@@H](NC(=O)[C@](C)(Cc1ccccc1)NC(=O)[C@H](CO)NC(=O)CNC(=O)[C@H](CCC(=O)O)NC(=O)C(C)(C)NC(=O)[C@@H](N)Cc1c[nH]cn1)[C@@H](C)O)C(C)C)C(=O)N[C@@H](C)C(=O)N[C@@](C)(Cc1ccccc1)C(=O)N[C@H](C(=O)N[C@H](C(=O)N[C@@](C)(CCCCN)C(=O)NCC(=O)NCC(N)=O)C(C)C)C(C)C` [compound 159], the EC50 in assay [1] (setting [4]) was no less than 27 nM; in assay [1] (setting [5]), no less than 27 nM; in assay [2] (setting [6]), no less than 27 nM; in assay [2] (setting [7]) it was no less than 27 nM; in assay [3] (setting [8]) it was 280 pM; in assay [3] (setting [9]), 230 pM. The EC50 in assay [3] (setting [10]) worked out at 254 pM.
